Source: patent US20070203215A1, “Methods & Compositions For Enhancing Pharmaceutical Treatments” (Taiji Biomedical, Inc., priority 1999, published 2007)

How the values were obtained:
MDA/LCC6^MDR1 tumors = assay: In vivo antitumor efficacy, orthotopic MDA/LCC6^MDR1 tumors; parameters: species or system SCID/RAG2 mice
Description: Anti-tumor efficacy experiments with orthotopic MDA/LCC6 and MDA/LCC6^MDR1 tumors were conducted in female SCID/RAG2 mice. Ascites propagated cells (2×10^6 in 50 μl) were injected into mammary fat pads bilaterally on day 0 before randomization into groups of 5 mice per group. Paclitaxel (12 mg/kg/dose) was administered QD i.v. (tail vein) in 200 μl saline/Cremophor/ethanol (8/1/1 by volume) on days 5, 12, 19, and 26. The compound of Formula 2-free base (30 mg/kg/dose) was administered BID p.o. by gavage in 100 μl PEG 400/Tween 20 (9/1 by volume) on days 4-6, 11-13, 18-20, and 25-27. Mean body weights were recorded at least every other day. Tumor weight was monitored approximately every other day by caliper measurements and calculated according to the formula (Tumor weight =(length×width^2)÷2). This conversion formula was verified by comparing the calculation derived tumor weights to excised and weighed tumors. Animals bearing ulcerated tumors or where tumor weight exceeded 10% of the animal's body weight were terminated. The weights of the bilateral tumors were averaged for each mouse and mean tumor weights for each treatment group±standard error of the mean were calculated. Statistical analysis was carried out by Mann-Whitney test using GraphPad Prism software (San Diego, Calif.).
The compound of Formula 2 was administered the afternoon before, 2 hours before and 6 hours after each paclitaxel dose. The ability of orally administered Formula 2 compound to reverse MDR in solid tumors in vivo was assessed with the MDA/LCC6^MDR1 model. Because the compound of Formula 2 produced no effect on paditaxel blood levels, focus on up-front therapy (for naive animals) or minimal residual disease models was maintained, as opposed to established tumors. MDA/LCC6^MDR1 cells that express P-gp were resistant to paclitaxel treatment in vitro and this resistance was reversed by the compound of Formula 2 (FIG. 1). […] Similar results were obtained in three independent experiments with two different strains of immunocompromised mice (SCID/RAG-2 and athymic). […]

human CYP3A4 = human CYP3A4 (Homo sapiens, UniProt P08684); assay: Inhibition of CYP3A4-mediated paclitaxel metabolism; type: in vitro ADME
Excerpt: Two enzymes primarily responsible for metabolism of paclitaxel are P450 CYP3A4 and CYP2C8. Some P-gp inhibitors are also metabolized by P450 CYP 3A4, leading to inhibition of paclitaxel metabolism. This may contribute to PK interactions with paclitaxel.

[1] = Saquinavir in rat cerebrospinal fluid and brain after oral ONT-093 or vehicle; type: in vivo, Sprague Dawley rats; details: Group 3: after OC-144-093 20 mg/kg p.o.; 30 min after saquinavir dose; individual animals 3001-3004; 20 mg/kg
Description: Blood samples (ca 0.3 mL) were collected from 8 selected rats by jugular venipuncture during slight anesthesia pre-dose and at 0.25, 0.5, 1, 2, 4 and 8 post-dose (saquinavir dose). Cerebrospinal fluid (CSF) and brain tissue were collected terminally from the remaining 8 rats at ca 30 min following administration of the dose of saquinavir. Blood samples were collected into tubes containing EDTA and placed on wet ice pending centrifugation. Plasma, CSF and brain tissue samples were stored at ca −80° C. until analysis of saquinavir by LC/MS. The vehicle used was polyethylene glycol (PEG-400)1 Tween 20 (9:1; v:v).
A total of 16 male Sprague Dawley rats were received from Charles River Canada (Saint-Constant, Quebec). Animals were approximately 9 weeks of age at arrival and weighed ca 312-340 g. Four males were randomly assigned to each of Groups 1, 2, 3 and 4. On the day of dosing and following an overnight fast, animals were weighed (ca 305-323 g) and were administered their respective combination of doses. Animals of Groups 1 and 3 received a single oral dose of ONT-093 (20 mg/kg) by gavage at a dose volume of 2 mL/kg. Animals of Groups 2 and 4 received a single oral dose of the vehicle by gavage at a dose volume of 2 mL/kg. Approximately 30 min following administration of either ONT-093 or the vehicle, all animals received a single oral dose of saquinavir (20 mg/kg) by gavage at a dose volume of 1 mL/kg.
Following administration of saquinavir, blood samples (ca 0.3 mL in EDTA) were obtained from all rats of Groups 1 and 2 by jugular venipuncture during anesthesia with isoflurane (Ohmeda Pharmaceutical Products) at each of the following time-points: pre-dose (prior to administration of ONT-093 or vehicle) and 0.25, 0.5, 1, 2, 4 and 8 hr post-dose. Following administration of saquinavir, CSF was obtained from all animals of Groups 3 and 4 at 30 min following dose administration. CSF was collected (in tubes containing no anticoagulant) from the cistema magna during anesthesia with isoflurane. Following CSF collection, the animals were sacrificed by exsanguination via puncture of the vena cava and the brain was harvested from all these rats. Immediately following collection, all samples (blood, CSF and brain) were placed on ice until further processing or storage. Blood samples were centrifuged (ca 3080 g at ca 4° C. for 10 min) and the resulting plasma samples were stored at ca −80° C. pending analysis. CSF samples and brains were stored at ca −80° C. pending analysis.
Plasma samples, CSF samples and brains were analyzed for unchanged saquinavir using an LC/MS assay. Pharmacokinetic analysis was performed on plasma concentrations using the PhAST Software Program, Version 2.2-00 (Phoenix International Life Sciences Inc.). The highest observable concentration was assumed to be the peak concentration (Cmax); Time to Cmax was denoted Tmax. The area under the plasma concentration versus time-curve from time zero to the last measurable concentration [AUC(tf] was calculated by the linear trapezoidal method. Where applicable, numerical values were subjected to calculation of group means and % CV. Student-T-test with Satterthwaite approximation was performed on AUC and Cmax values to compare ONT-093 treated animals versus vehicle treated animals using SAS software program, Version 6.12 (SAS Institute Inc., Gary, N.C.). Where values were below limit of quantification, zero was used for pharmacokinetic analysis. The bioavailability (F) of saquinavir when administered with ONT-093 was calculated relative to the AUC values obtained from the animals receiving saquinavir following administration of the vehicle.

human CYP3A4, sequence (P08684 whole entry): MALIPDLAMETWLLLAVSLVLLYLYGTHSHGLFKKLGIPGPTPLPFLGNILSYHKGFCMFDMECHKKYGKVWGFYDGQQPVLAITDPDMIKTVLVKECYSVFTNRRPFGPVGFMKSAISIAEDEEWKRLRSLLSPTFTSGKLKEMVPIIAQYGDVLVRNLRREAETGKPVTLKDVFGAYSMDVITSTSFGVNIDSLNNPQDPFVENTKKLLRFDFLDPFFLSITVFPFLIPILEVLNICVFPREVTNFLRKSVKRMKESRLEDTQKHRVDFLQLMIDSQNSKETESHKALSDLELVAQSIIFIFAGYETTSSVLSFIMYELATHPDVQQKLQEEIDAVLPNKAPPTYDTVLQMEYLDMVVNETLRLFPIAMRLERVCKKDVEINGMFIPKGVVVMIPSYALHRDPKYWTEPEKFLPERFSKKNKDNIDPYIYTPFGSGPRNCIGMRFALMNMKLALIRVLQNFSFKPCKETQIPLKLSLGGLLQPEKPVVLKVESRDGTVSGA

Structure (SMILES): CCOC/C=C/c1ccc(-c2nc(-c3ccc(NC(C)C)cc3)c(-c3ccc(NC(C)C)cc3)[nH]2)cc1 [Formula 2 compound]
- In vivo tumor growth (MDA/LCC6^MDR1 tumors; Formula 2 compound and paclitaxel combined, persisted at least two weeks after last paclitaxel dose): statistically significant inhibition of tumor growth
- In vivo tumor growth compared to the vehicle control (MDA/LCC6^MDR1 tumors; single agent alone, paclitaxel 12 mg/kg i.v., Formula 2 free base 30 mg/kg p.o.): no significant effect
- Ki (human CYP3A4): 39.8 ± 5.1 µM
- Ki (CYP3A4) relative to EC50s for reversal of MDR (human CYP3A4; higher): approximately 1000 fold
- Saquinavir Concentration in CSF [1]: BLQ
